# Measured values: patent US5753678A, “Heterocyclic compounds” (Novo Nordisk A/S, priority 1995, dated 1998)
# Counter-ions that a name gives are not always drawn.
# System: histamine induced paw oedema
# Assay: Histamine induced paw oedema
# Assay type: in vivo, male Sprague-Dawley rats
# Settings: at 1 mg/kg, intraperitoneally 15 minutes before the anesthetics, rats, paw swelling 20 minutes after histamine
# Experimental: II. Histamine induced paw oedema Values for in vivo inhibition of […] induced oedema for the compounds of the present invention were assessed in rats essentially as described by Amann et al. (Europ. J. Pharmacol. 30 279, 227-231, 1995). In brief 250-300 g male Sprague-Dawley rats were […] pentobarbital sodium, and placed on a 32 degree heated table. Ten minutes later histamine (50 microliter, 3 mg/ml) was injected in the right hind paw and 20 minutes hereafter the paw swelling was determined by water plethysmography (Ugo Basile). Test compounds were administered intraperitoneally at 15 minutes before the anesthetics. |Inhibition of histamine induced oedema at 1 mg/kg
row,SMILES,% oedema inhibition
1,"Cl.O=C(O)[C@@H]1CCCN(CCC=C2c3ccccc3OCOc3ccccc32)C1 [Example 2, (R)-1-(3-(12H-Dibenzo[d,g][1,3]dioxocin-12-ylidene)-1-propyl)-3-piperidinecarboxylic acid hydrochloride]",52%
2,"CCOC(=O)[C@@H]1CCCN(CCC=C2c3ccccc3OCOc3ccccc32)C1 [Example 3, (R)-1-(3-(12H-Dibenzo[d,g][1,3]doxocin-12-ylidene)-1-propyl)-3-piperidinecarboxylic acid ethyl ester hydrochloride]",33%
